From US6531143B1, “α-hydroxy fatty acid derivatives and external compositions containing the same” (Kanebo, Limited, priority 1998, dated 2003)
Read-outs that look alike come from different tables or passages of the source.

Tests used:
[1] = tested on: skin (facies medialis brachii of 20 subjects); test: Safety test: irritation to the skin, 24 h patch test; settings: 50 wt % in olive oil, 1 ml on adhesive plaster, 24 hours on facies medialis brachii, evaluated 24 hours after removing the patch, subjects with clear erythema
Protocol: (§1) As the safety test, irritation to the skin was examined by the following method. Each sample of the alpha-hydroxy fatty acid derivatives obtained in the Examples prepared by dissolving in olive oil in the concentration of 50 wt % and an adhesive plaster for patch test was impregnated with 1 ml of the sample. The adhesive plaster was put on the facies medialis brachii of 20 subjects for 24 hours. Irritation was evaluated 24 hours after removing the patch.

[2] = tested on: skin (facies medialis brachii of 20 subjects); settings: in vivo
Protocol: as §1

melting point [°C] | Positive percentage [2] [%] | Compound | Positive percentage [1] [%]
52.5 | – | CCCCCCCCCCCCCCCCOC(=O)C(CCCCCCCCCCCCCC)OC(=O)CCCCCCCCCCCCCCC (stereo not shown) [2-palmitoyloxypalmitic acid palmityl ester] | 0
– | 0 | 2-long-chain branched fatty acid (12-31) oxypalmitic acid palmityl ester | –
– | – | CCCCCCCCCCCCC(OC(=O)C(C)C)C(=O)OCCCCCCCCCCCCCCCCCC(C)CC (stereo not shown) [2-isobutyryloxymyristic acid-(18)-methylicosanyl ester] | 0
– | – | CCCCCCCCCCCCCCCCC(OC(C)=O)C(=O)OCCCCCCCCCCCCCCCCCC(C)C (stereo not shown) [2-acetyloxystearic acid-(18)-methylnonadecanyl ester] | 0
– | – | CCCCCCCCCCCCOC(=O)C(CCCCCCCCCC)OC(=O)CC(C)C (stereo not shown) [2-isovaleryloxylauric acid lauryl ester] | 0
35.1 | – | CCCCCCCCCCCCCCCCOC(=O)C(CCCCCCCCCCCCCC)OC(C)=O (stereo not shown) [2-acetyloxypalmitic acid palmityl ester] | 0
28.3 | – | CCCCCCCCCCCCCCCCOC(=O)C(CCCCCCCCCCCCCC)OC(=O)C(C)C (stereo not shown) [2-isobutyryloxypalmitic acid palmityl ester] | 0
